Like-named read-outs stand apart in the source and are kept apart here.
What was measured:
Assay type in all cases: biochemical
[1] = target: T1, aggrecanase-1 (Homo sapiens, UniProt O75173); experiment: Aggrecanase-1 inhibitory action (Particle Assay, GAG release from aggrecan-containing polyacrylamide particles)
T1 sequence (O75173 213-837): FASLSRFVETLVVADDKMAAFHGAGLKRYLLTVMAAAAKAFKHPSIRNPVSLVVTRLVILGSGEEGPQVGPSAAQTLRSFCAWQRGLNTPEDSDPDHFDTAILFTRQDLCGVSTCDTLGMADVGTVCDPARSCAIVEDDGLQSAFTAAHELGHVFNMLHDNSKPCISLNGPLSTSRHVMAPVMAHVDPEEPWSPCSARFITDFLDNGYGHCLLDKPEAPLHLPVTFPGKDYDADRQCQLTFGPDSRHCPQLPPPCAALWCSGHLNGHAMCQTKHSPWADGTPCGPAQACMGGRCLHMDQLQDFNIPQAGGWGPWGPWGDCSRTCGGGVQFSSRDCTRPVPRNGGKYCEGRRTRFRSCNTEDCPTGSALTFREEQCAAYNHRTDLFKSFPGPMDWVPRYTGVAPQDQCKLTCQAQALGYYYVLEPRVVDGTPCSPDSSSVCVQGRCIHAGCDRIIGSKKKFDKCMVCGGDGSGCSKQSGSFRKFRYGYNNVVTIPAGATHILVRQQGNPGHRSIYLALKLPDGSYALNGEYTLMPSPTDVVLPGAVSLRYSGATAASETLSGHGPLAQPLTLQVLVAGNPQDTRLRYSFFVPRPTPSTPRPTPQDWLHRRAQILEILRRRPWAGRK
How it was run: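 Enzyme and compound incubated with aggrecan-containing polyacrylamide particles in Tris-HCl buffer at 37° C for 15 h. Released GAG in supernatant measured with 1,9-dimethylmethylene blue at 595 nm against chondroitin sulfate standard; % inhibition from enzyme-free and inhibitor-free wells, reported as TC50 (μM).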

[2] = target: T2, MMP-1 (Homo sapiens, UniProt P03956); experiment: MMP-1 inhibitory action (Type I collagen Activity Measurement kit, FITC-labeled collagen type I)
T2 sequence (P03956 100-469): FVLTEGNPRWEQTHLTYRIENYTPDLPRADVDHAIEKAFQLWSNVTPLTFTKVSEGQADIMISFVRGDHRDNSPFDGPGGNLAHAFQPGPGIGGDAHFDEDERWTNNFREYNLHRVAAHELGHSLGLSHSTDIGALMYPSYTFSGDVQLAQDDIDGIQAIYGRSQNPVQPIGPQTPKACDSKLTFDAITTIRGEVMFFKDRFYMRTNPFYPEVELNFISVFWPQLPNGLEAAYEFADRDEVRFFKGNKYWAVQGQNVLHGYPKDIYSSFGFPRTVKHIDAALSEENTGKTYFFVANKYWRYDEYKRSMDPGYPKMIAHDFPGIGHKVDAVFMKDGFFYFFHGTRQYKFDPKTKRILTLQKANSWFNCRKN

[3] = target: T3, Recombinant Human MMP-13 (Homo sapiens, UniProt P45452); experiment: MMP-13 inhibitory activity (MMP-13 specific fluorescent substrate with quencher)
T3 construct: purchased R&D systems 511-MM
How it was run: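 Recombinant human MMP-13 with test compound, reaction started with quenched fluorogenic peptide 7-MCA-Pro-CHA-Gly-NVal-His-Ala-DPA in Tris-HCl buffer, 1 h at 25 °C, stopped with acetic acid. Fluorescence at Ex 325/Em 405 nm; % inhibition versus enzyme-free and inhibitor-free wells, reported as IC50 (μM).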

[4] = Experimental Example 1, read-out: IC50 AG1
[5] = Experimental Example 2, read-out: IC50 MMP1
[6] = Experimental Example 3, read-out: IC50 MMP13
[7] = aggrecanase-1 inhibitory action, read-out: IC50 AG1 (Experimental Example 1)
[8] = MMP-1 inhibitory action, FITC-labeled collagen type I, 37° C. for 3 hr, read-out: IC50 MMP1 (Experimental Example 2)
[9] = Recombinant Human MMP-13, fluorescent substrate, 25° C. for 1 h, read-out: IC50 MMP13 (Experimental Example 3)

IC50 [1, 4] [nM]	IC50 [2, 5] [nM]	IC50 [3, 6] [nM]	IC50 [1, 7] [nM]	IC50 [2, 8] [nM]	IC50 [3, 9] [nM]	Compound
< 1000	≥ 1000	≥ 1000	–	–	–	C[C@]1(c2ccccc2)C[C@@]1(NS(=O)(=O)c1ccc(-c2ccc(O)c(F)c2)s1)C(=O)O [Example 2-589]
≥ 1000	≥ 1000	≥ 1000	–	–	–	C[C@]1(c2ccccc2)C[C@@]1(NS(=O)(=O)c1ccc(/C=C\C(F)(F)F)s1)C(=O)O [Example 2-563]
< 1000	≥ 1000	< 1000	–	–	–	O=C(NCC1(c2ccccc2)CC1(NS(=O)(=O)c1ccc(-c2ccc(Cl)cc2)s1)C(=O)O)c1ccccn1 (stereo not drawn) [Example 2-368]
≥ 1000	≥ 10000	≥ 1000	–	–	–	C[C@]1(c2ccccc2)C[C@@]1(NS(=O)(=O)c1ccc(-c2ccc3nnn(O)c3c2)s1)C(=O)O [Example 2-487]
< 1000	≥ 10000	< 1000	–	–	–	COCC(=O)NCC1(c2ccccc2)CC1(NS(=O)(=O)c1ccc(-c2ccc(Cl)cc2)s1)C(=O)O (stereo not drawn) [Example 2-398]
< 100	< 1000	< 1000	–	–	–	CC1(c2ccccc2Cl)CC1(NS(=O)(=O)c1ccc(-c2cc(C(F)(F)F)on2)s1)C(=O)O (stereo not drawn) [Example 2-616]
≥ 1000	≥ 10000	≥ 1000	–	–	–	O=C(O)C1(NS(=O)(=O)c2ccc(OCc3ccc(Cl)cc3Cl)cc2)C2Cc3ccccc3C21 (stereo not drawn) [Example 2-446]
≥ 1000	≥ 10000	≥ 1000	–	–	–	Cc1nc2cc(N3CCN(S(=O)(=O)N[C@@]4(C(=O)O)C(C)[C@@H]4c4ccccc4)CC3)ccc2s1 (stereo partly drawn) [Example 2-483]
< 1000	< 1000	< 100	–	–	–	COCc1cc(-c2ccc(S(=O)(=O)N[C@@]3(C(=O)O)C[C@]3(C)c3ccccc3)s2)no1 [Example 2-403]
< 1000	≥ 1000	< 1000	–	–	–	C[C@]1(c2ccccc2)C[C@@]1(NS(=O)(=O)c1ccc(-c2ccc3c(c2)OC(F)(F)O3)s1)C(=O)O [Example 2-544]
< 1000	≥ 1000	< 1000	–	–	–	CCCC(=O)NCC1(c2ccccc2)CC1(NS(=O)(=O)c1ccc(-c2ccc(Cl)cc2)s1)C(=O)O (stereo not drawn) [Example 2-377]
< 1000	< 1000	< 100	–	–	–	O=C(NO)C1(NS(=O)(=O)c2ccc(-c3ccc(Cl)cc3)s2)C2CCc3ccccc3C21 (stereo not drawn) [Example 2-364]
< 100	< 1000	< 100	–	–	–	CC1[C@H](c2ccccc2)[C@]1(NS(=O)(=O)c1ccc2c(c1)Cc1cc(Cl)ccc1-2)C(=O)O (stereo partly drawn) [Example 2-569]

Continued, compound first:

Compound	IC50 [1, 4] [nM]	IC50 [2, 5] [nM]	IC50 [3, 6] [nM]	IC50 [1, 7] [nM]	IC50 [2, 8] [nM]	IC50 [3, 9] [nM]
Cc1ncc(-c2ccc(S(=O)(=O)N[C@@]3(C(=O)O)C[C@@H]3c3ccccc3)s2)s1 [Example 2-55]	–	–	–	≥ 1000	≥ 10000	≥ 10000
O=C(O)[C@]1(NS(=O)(=O)c2ccc(-c3ccc(Cl)cc3)s2)C[C@@H]1c1ccccc1Br [Example 2-178]	–	–	–	< 100	≥ 10000	< 1000
NC(=O)OCCc1cccc(C2CC2(NS(=O)(=O)c2ccc(-c3cc(C(F)(F)F)on3)s2)C(=O)O)c1 (stereo not drawn) [Example 2-270]	< 100	≥ 1000	< 100	–	–	–
CN1CCN(CC2(c3ccccc3)CC2(NS(=O)(=O)c2ccc(-c3cc(C(F)(F)F)on3)s2)C(=O)O)CC1 (stereo not drawn) [Example 2-342]	< 1000	≥ 1000	≥ 1000	–	–	–
Cc1nc(-c2ccc(S(=O)(=O)NC3(C(=O)O)CC3c3ccccc3)s2)co1 (stereo not drawn) [Example 2-87]	–	–	–	≥ 10000	≥ 10000	≥ 1000
O=C(O)C1(NS(=O)(=O)c2ccc(-c3ccc(Cl)cc3)s2)CC1Cn1nnc2ccccc2c1=O (stereo not drawn) [Example 2-47]	–	–	–	≥ 1000	≥ 10000	< 1000
CC1[C@H](c2ccccc2)[C@]1(NS(=O)(=O)c1ccc(-c2cc(C(F)(F)F)on2)s1)C(N)=O (stereo partly drawn) [Example 2-296]	≥ 1000	≥ 10000	≥ 1000	–	–	–
CC(=O)Nc1cccc(C2CC2(NS(=O)(=O)c2ccc(-c3ccc(Cl)cc3)cc2)C(=O)O)c1 (stereo not drawn) [Example 1-40]	–	–	–	< 1000	≥ 1000	< 100
O=C(NCCCC1(c2ccccc2)CC1(NS(=O)(=O)c1ccc(-c2ccc(Cl)cc2)s1)C(=O)O)OC1CCCC1 (stereo not drawn) [Example 2-298]	< 100	≥ 1000	< 100	–	–	–
C[C@@H]1[C@H](c2ccccc2)[C@]1(NS(=O)(=O)c1ccc(-c2cc(C(C)(F)F)on2)s1)C(=O)O [Example 2-9, (1S,2R,3R)-1-{5-[5-(1,1-difluoro-ethyl)-isoxazol-3-yl]-thiophene-2-sulfonylamino}-2-methyl-3-phenyl-cyclopropanecarboxylic acid]	–	–	–	< 100	< 100	< 100
O=C(O)C1(NS(=O)(=O)c2ccc(S(=O)(=O)c3ccccc3)s2)CC1c1ccccc1 (stereo not drawn) [Example 2-81]	–	–	–	≥ 10000	≥ 10000	≥ 10000
Cn1nc(C(F)(F)F)cc1-c1ccc(S(=O)(=O)NC2(C(=O)O)CC2c2ccccc2)s1 (stereo not drawn) [Example 2-14]	–	–	–	≥ 10000	≥ 10000	≥ 10000
CNC(=O)CCc1ccc([C@H]2C[C@@]2(NS(=O)(=O)c2ccc(-c3cc(C(F)(F)F)on3)s2)C(=O)O)cc1 [Example 2-281]	< 100	< 1000	< 100	–	–	–
O=C(CCc1cccc(C2CC2(NS(=O)(=O)c2ccc(-c3ccc(Cl)cc3)s2)C(=O)O)c1)N1CCSCC1 (stereo not drawn) [Example 2-211]	–	–	–	< 100	≥ 10000	< 100
Nc1cccc([C@H]2C[C@@]2(NS(=O)(=O)c2ccc(-c3ccc(Cl)cc3)s2)C(=O)O)c1 [Example 2-174]	–	–	–	< 100	≥ 1000	< 100
C[C@]1(c2ccccc2)C[C@@]1(NS(=O)(=O)c1ccc(-c2cc(CF)sn2)s1)C(=O)O [Example 2-121]	–	–	–	< 100	< 1000	< 100
O=C(O)C1(NS(=O)(=O)c2ccc(-c3ccc(Cl)cc3)cc2)CC1c1cccc(Nc2ccccn2)c1 (stereo not drawn) [Example 1-61]	–	–	–	< 1000	≥ 1000	< 100
CC(=O)c1ccc(S(=O)(=O)NC2(C(=O)O)CC2c2ccccc2)cc1 (stereo not drawn) [Example 2-80]	–	–	–	≥ 10000	≥ 10000	≥ 10000
O=C(O)[C@]1(NS(=O)(=O)/C=C/c2ccccc2)C[C@@H]1c1ccccc1 [Example 2-140]	–	–	–	≥ 10000	≥ 10000	≥ 1000
CC1[C@H](c2ccccc2)[C@]1(NS(=O)(=O)c1ccc(-c2cc(C(F)F)on2)s1)C(=O)O (stereo partly drawn) [Example 2-353]	< 100	< 1000	< 100	–	–	–
O=C(O)[C@]1(NS(=O)(=O)c2ccc(-c3cc(C(F)F)on3)s2)C[C@@H]1c1ccccc1 [Example 2-99]	–	–	–	< 100	< 1000	< 1000
CC1CCN(c2ccc(S(=O)(=O)N[C@@]3(C(=O)O)C[C@@H]3c3ccccc3)s2)CC1 [Example 2-256]	–	–	–	≥ 1000	≥ 10000	≥ 10000
O=C(OCCCc1cccc(C2CC2(NS(=O)(=O)c2ccc(-c3cc(C(F)(F)F)on3)s2)C(=O)O)c1)N1CCOCC1 (stereo not drawn) [Example 2-239]	–	–	–	< 100	≥ 1000	< 100
O=C(O)C1(NS(=O)(=O)c2ccc(-c3ccc(Cl)cc3)cc2)CC1c1ccc(Oc2ccccc2)cc1 (stereo not drawn) [Example 1-16]	–	–	–	< 1000	≥ 1000	< 100
